Laboratory results: PubChem BioAssay (NCI)
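These data come from cells grown in 96-well plates and exposed to compound for 48 hours at five concentrations. The concentration for 50% growth inhibition is given as GI50. At the TGI there is no net growth.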

Experiments:
Experiment in all cases: DTP human tumour cell line panel, 48 h
NCI-H23 lung = system: NCI-H23 lung
786-0 renal = system: 786-0 renal
A498 renal = system: A498 renal
A549 NSCLC = system: A549 NSCLC
ACHN renal = system: ACHN renal
BT-549 breast = system: BT-549 breast
CAKI-1 renal = system: CAKI-1 renal
CCRF-CEM leukemia = system: CCRF-CEM leukemia
COLO 205 colon = system: COLO 205 colon
DU-145 prostate = system: DU-145 prostate
EKVX NSCLC = system: EKVX NSCLC
HCC-2998 colon = system: HCC-2998 colon
HCT-116 colon = system: HCT-116 colon
HCT-15 colon = system: HCT-15 colon
HL-60(TB) leukemia = system: HL-60(TB) leukemia
HOP-62 NSCLC = system: HOP-62 NSCLC
HOP-92 NSCLC = system: HOP-92 NSCLC
HS 578T breast = system: HS 578T breast
HT29 colon = system: HT29 colon
IGROV1 ovarian = system: IGROV1 ovarian
K-562 leukemia = system: K-562 leukemia
KM12 colon = system: KM12 colon
LOX IMVI melanoma = system: LOX IMVI melanoma
MALME-3M melanoma = system: MALME-3M melanoma
MCF7 breast = system: MCF7 breast
MOLT-4 leukemia = system: MOLT-4 leukemia
NCI-H226 lung = system: NCI-H226 lung
NCI-H460 lung = system: NCI-H460 lung
NCI-H522 lung = system: NCI-H522 lung
NCI/ADR-RES ovarian = system: NCI/ADR-RES ovarian
OVCAR-3 ovarian = system: OVCAR-3 ovarian
OVCAR-4 ovarian = system: OVCAR-4 ovarian
OVCAR-5 ovarian = system: OVCAR-5 ovarian
OVCAR-8 ovarian = system: OVCAR-8 ovarian
PC-3 prostate = system: PC-3 prostate
RPMI-8226 leukemia = system: RPMI-8226 leukemia
SF-268 CNS = system: SF-268 CNS
SF-295 CNS = system: SF-295 CNS
SK-MEL-2 melanoma = system: SK-MEL-2 melanoma
SK-MEL-28 melanoma = system: SK-MEL-28 melanoma
SK-MEL-5 melanoma = system: SK-MEL-5 melanoma
SK-OV-3 ovarian = system: SK-OV-3 ovarian
SN12C renal = system: SN12C renal
SNB-19 CNS = system: SNB-19 CNS
SNB-75 CNS = system: SNB-75 CNS
SR leukemia = system: SR leukemia
SW-620 colon = system: SW-620 colon
TK-10 renal = system: TK-10 renal
U251 CNS = system: U251 CNS
UACC-257 melanoma = system: UACC-257 melanoma
UACC-62 melanoma = system: UACC-62 melanoma
UO-31 renal = system: UO-31 renal

CC(C)Cc1ccc(C(C)C(=O)O)cc1 (centres undefined)
TGI (NCI-H23 lung): > 100 µM

CCc1ccc2c(c1)N(CCO)C1=C(C(=O)OC1)C2c1cc(OC)c(OC)c(OC)c1 (centres undefined)
GI50 (786-0 renal): 0.245 µM | TGI (786-0 renal): > 14.5 µM | GI50 (A498 renal): 0.103 µM | TGI (A498 renal): 0.932 µM | GI50 (A549 NSCLC): 0.236 µM | TGI (A549 NSCLC): > 50 µM | GI50 (ACHN renal): 0.389 µM | TGI (ACHN renal): > 50 µM | GI50 (BT-549 breast): 0.564 µM | TGI (BT-549 breast): > 15.7 µM | GI50 (CAKI-1 renal): 0.599 µM | TGI (CAKI-1 renal): > 50 µM | GI50 (CCRF-CEM leukemia): 0.185 µM | TGI (CCRF-CEM leukemia): > 50 µM | GI50 (COLO 205 colon): 0.151 µM | TGI (COLO 205 colon): 0.437 µM | GI50 (DU-145 prostate): 0.174 µM | TGI (DU-145 prostate): 0.856 µM | GI50 (EKVX NSCLC): 1.17 µM | TGI (EKVX NSCLC): > 50 µM | GI50 (HCC-2998 colon): 0.327 µM | TGI (HCC-2998 colon): > 10.3 µM | GI50 (HCT-116 colon): 0.188 µM | TGI (HCT-116 colon): 1.77 µM | GI50 (HCT-15 colon): 0.425 µM | TGI (HCT-15 colon): > 50 µM | GI50 (HL-60(TB) leukemia): 0.142 µM | TGI (HL-60(TB) leukemia): 0.48 µM | GI50 (HOP-62 NSCLC): 0.207 µM | TGI (HOP-62 NSCLC): > 50 µM | GI50 (HOP-92 NSCLC): 0.716 µM | TGI (HOP-92 NSCLC): > 50 µM | GI50 (HS 578T breast): 0.218 µM | TGI (HS 578T breast): > 50 µM | GI50 (HT29 colon): 0.143 µM | TGI (HT29 colon): 0.447 µM | GI50 (IGROV1 ovarian): 0.376 µM | TGI (IGROV1 ovarian): > 50 µM | GI50 (K-562 leukemia): 0.176 µM | TGI (K-562 leukemia): > 30.4 µM | GI50 (KM12 colon): 0.163 µM | TGI (KM12 colon): 0.987 µM | GI50 (LOX IMVI melanoma): 0.318 µM | TGI (LOX IMVI melanoma): > 50 µM | GI50 (MALME-3M melanoma): 0.218 µM | TGI (MALME-3M melanoma): > 50 µM | GI50 (MCF7 breast): 0.209 µM | TGI (MCF7 breast): > 50 µM | GI50 (MOLT-4 leukemia): 0.486 µM | TGI (MOLT-4 leukemia): > 50 µM | GI50 (NCI-H226 lung): 0.178 µM | TGI (NCI-H226 lung): 2.44 µM | GI50 (NCI-H23 lung): 0.219 µM | TGI (NCI-H23 lung): > 14.4 µM | GI50 (NCI-H460 lung): 0.178 µM | TGI (NCI-H460 lung): 7.62 µM | GI50 (NCI-H522 lung): 0.0837 µM | TGI (NCI-H522 lung): 0.26 µM | GI50 (NCI/ADR-RES ovarian): 0.974 µM | TGI (NCI/ADR-RES ovarian): 6.65 µM | GI50 (OVCAR-3 ovarian): 0.112 µM | TGI (OVCAR-3 ovarian): 0.274 µM | GI50 (OVCAR-4 ovarian): 0.362 µM | TGI (OVCAR-4 ovarian): > 50 µM | GI50 (OVCAR-5 ovarian): 0.422 µM | TGI (OVCAR-5 ovarian): > 50 µM | GI50 (OVCAR-8 ovarian): 0.184 µM | TGI (OVCAR-8 ovarian): 1.22 µM | GI50 (PC-3 prostate): 0.196 µM | TGI (PC-3 prostate): > 50 µM | GI50 (RPMI-8226 leukemia): 0.201 µM | TGI (RPMI-8226 leukemia): 42 µM | GI50 (SF-268 CNS): 0.3 µM | TGI (SF-268 CNS): > 19.8 µM | GI50 (SF-295 CNS): 0.126 µM | TGI (SF-295 CNS): 0.469 µM | GI50 (SK-MEL-2 melanoma): 0.143 µM | TGI (SK-MEL-2 melanoma): 0.469 µM | GI50 (SK-MEL-28 melanoma): 0.275 µM | TGI (SK-MEL-28 melanoma): > 50 µM | GI50 (SK-MEL-5 melanoma): 0.126 µM | TGI (SK-MEL-5 melanoma): 0.581 µM | GI50 (SK-OV-3 ovarian): 0.169 µM | GI50 (SN12C renal): 0.345 µM | TGI (SN12C renal): > 50 µM | GI50 (SNB-19 CNS): 0.263 µM | TGI (SNB-19 CNS): > 50 µM | GI50 (SNB-75 CNS): 0.134 µM | TGI (SNB-75 CNS): > 50 µM | GI50 (SR leukemia): 0.187 µM | TGI (SR leukemia): > 50 µM | GI50 (SW-620 colon): 0.168 µM | TGI (SW-620 colon): > 50 µM | GI50 (TK-10 renal): 0.248 µM | TGI (TK-10 renal): > 50 µM | GI50 (U251 CNS): 0.182 µM | TGI (U251 CNS): > 50 µM | GI50 (UACC-257 melanoma): 0.197 µM | TGI (UACC-257 melanoma): > 50 µM | GI50 (UACC-62 melanoma): 0.182 µM | TGI (UACC-62 melanoma): > 50 µM | GI50 (UO-31 renal): 0.457 µM | TGI (UO-31 renal): > 50 µM
